Test results as given in ChEMBL document CHEMBL2203067, “Peptide-chlorambucil conjugates combat pgp-dependent drug efflux” (ACS Med Chem Lett, 2011).
The source made the active and inactive calls. The calls are words filed in the database; no cut-off is given here.

Legend:
[1] = Cellular uptake in adriamycin-resistant human A2780 cells plasma membrane at 5 uM after 5 mins by confocal microscopic analysis; type: ADME, cell-based; settings: a2780, 5 min
A2780 [2] = assay: Inhibition of Pgp-mediated drug efflux in adriamycin-resistant human A2780 cells assessed as increase in intracellular actinomycin level at 5 uM after 40 mins by flow cytometry analysis; type: cell-based
A2780 [3] = assay: Inhibition of Pgp-mediated drug efflux in adriamycin-resistant human A2780 cells assessed as increase in intracellular adriamycin level at 5 uM after 40 mins by flow cytometry analysis; type: cell-based
A2780 [4] = assay: Inhibition of Pgp-mediated drug efflux in adriamycin-resistant human A2780 cells assessed as increase of MitoTracker accumulation at 5 uM after 5 mins by confocal microscopic analysis; type: cell-based
[5] = target: ATP-dependent translocase ABCB1 (Homo sapiens, UniProt P08183); assay: Inhibition of p-glycoprotein in adriamycin-resistant human A2780 cell at 5 uM after 40 mins by confocal microscopic analysis; settings: a2780, 40 min
ATP-dependent translocase ABCB1, sequence (P08183 whole entry): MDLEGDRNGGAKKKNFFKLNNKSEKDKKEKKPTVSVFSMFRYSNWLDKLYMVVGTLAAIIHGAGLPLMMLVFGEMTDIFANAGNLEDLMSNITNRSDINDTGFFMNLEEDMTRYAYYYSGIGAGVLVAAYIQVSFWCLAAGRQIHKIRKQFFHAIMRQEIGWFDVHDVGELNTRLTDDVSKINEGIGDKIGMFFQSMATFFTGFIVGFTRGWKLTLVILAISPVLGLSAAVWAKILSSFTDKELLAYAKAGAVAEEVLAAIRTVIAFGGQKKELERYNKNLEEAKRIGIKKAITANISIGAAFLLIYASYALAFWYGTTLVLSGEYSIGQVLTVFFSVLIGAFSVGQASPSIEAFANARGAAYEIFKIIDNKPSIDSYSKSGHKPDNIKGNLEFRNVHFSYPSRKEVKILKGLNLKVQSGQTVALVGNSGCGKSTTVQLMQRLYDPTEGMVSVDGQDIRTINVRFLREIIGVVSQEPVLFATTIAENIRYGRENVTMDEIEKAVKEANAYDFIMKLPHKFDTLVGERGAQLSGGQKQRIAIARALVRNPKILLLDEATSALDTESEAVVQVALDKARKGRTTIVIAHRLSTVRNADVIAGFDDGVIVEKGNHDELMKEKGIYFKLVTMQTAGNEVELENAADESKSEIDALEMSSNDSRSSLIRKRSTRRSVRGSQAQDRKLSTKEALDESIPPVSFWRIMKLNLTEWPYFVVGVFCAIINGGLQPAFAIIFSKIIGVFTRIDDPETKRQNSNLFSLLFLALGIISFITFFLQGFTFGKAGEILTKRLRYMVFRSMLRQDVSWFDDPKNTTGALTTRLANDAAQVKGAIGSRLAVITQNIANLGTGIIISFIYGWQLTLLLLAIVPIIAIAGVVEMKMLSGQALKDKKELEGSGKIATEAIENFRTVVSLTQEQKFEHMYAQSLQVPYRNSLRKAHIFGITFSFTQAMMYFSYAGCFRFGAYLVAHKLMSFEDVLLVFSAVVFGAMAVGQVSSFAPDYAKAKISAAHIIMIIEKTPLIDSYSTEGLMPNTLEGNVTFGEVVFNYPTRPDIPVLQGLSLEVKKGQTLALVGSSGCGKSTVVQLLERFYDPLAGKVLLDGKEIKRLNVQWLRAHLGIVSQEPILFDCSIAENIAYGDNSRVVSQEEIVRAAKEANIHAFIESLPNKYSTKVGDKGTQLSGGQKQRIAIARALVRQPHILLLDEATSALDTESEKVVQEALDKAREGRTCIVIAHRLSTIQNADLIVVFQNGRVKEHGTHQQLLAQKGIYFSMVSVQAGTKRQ

A2780 [6] = assay: Inhibition of Pgp-mediated drug efflux in human A2780 cells overexpressing Pgp assessed as increase in intracellular adriamycin level at 5 uM after 40 mins by flow cytometry analysis; type: cell-based
A2780 [7] = assay: Inhibition of Pgp-mediated drug efflux in adriamycin-resistant human A2780 cells assessed as localization of MitoTracker from plasma membrane to intracellular sites at 5 uM after 5 mins by confocal microscopic analysis; type: cell-based
[8] = Cellular uptake in adriamycin-resistant human A2780 cell plasma membrane at 5 uM after 40 mins by confocal microscopic analysis; type: ADME, cell-based; settings: a2780, 40 min
A2780 [9] = assay: Inhibition of Pgp-mediated drug efflux in adriamycin-resistant human A2780 cells assessed as localization of adriamycin from plasma membrane to intracellular sites at 5 uM after 5 mins by confocal microscopic analysis; type: cell-based
A2780 [10] = assay: Inhibition of Pgp in adriamycin-resistant human A2780 cells assessed as co-immunoprecipitation with biotin-Fxr3kCbl at 5 uM after 1 hr by immunoblotting analysis; type: cell-based
[11] = Cellular uptake in adriamycin-resistant human A2780 cell mitochondria at 5 uM after 40 mins by confocal microscopic analysis; type: ADME; settings: a2780, 40 min
[12] = Cellular uptake in wild type human A2780 cell mitochondria at 5 uM after 40 mins by confocal microscopic analysis; type: ADME; settings: a2780, 40 min
A2780 [13] = assay: Inhibition of Pgp-mediated drug efflux in adriamycin-resistant human A2780 cells assessed as increase in adriamycin uptake at 5 uM after 8 hrs by flow cytometry analysis; type: cell-based
A2780 [14] = assay: Inhibition of Pgp-mediated drug efflux in adriamycin-resistant human A2780 cells assessed as increase in adriamycin-induced cytotoxicity at 5 uM after 8 hrs by CCK-8 assay; type: cell-based
A2780 [15] = assay: Inhibition of Pgp-mediated drug efflux in adriamycin-resistant human A2780 cells assessed as increase in adriamycin uptake at 5 uM after 1 hr by flow cytometry analysis; type: cell-based
A2780 [16] = assay: Inhibition of Pgp-mediated drug efflux in adriamycin-resistant human A2780 cells assessed as increase in adriamycin-induced cytotoxicity at 5 uM after 1 hr by CCK-8 assay; type: cell-based
A2780 [17] = assay: Cellular uptake in adriamycin-resistant human A2780 cells at 20 uM after 5 mins by confocal microscopic analysis; type: ADME, cell-based; settings: a2780, 5 min

Compound	Drug uptake [1]	inhibition (A2780 [3])	inhibition (A2780 [6])	inhibition (A2780 [13])	inhibition (A2780 [14]) [%]	inhibition (A2780 [15])	inhibition (A2780 [16]) [%]	further results
CN1/C(=C\c2cc[n+](CCCCCC(=O)N[C@@H](CC3CCCCC3)C(=O)N[C@H](CCCNC(=N)N)C(=O)N[C@@H](CC3CCCCC3)C(=O)N[C@H](CCCNC(=N)N)C(=O)N[C@@H](CC3CCCCC3)C(=O)N[C@H](CCCNC(=N)N)C(=O)N[C@H](CCCCNC(=O)CCCc3ccc(N(CCCl)CCCl)cc3)C(N)=O)c3ccccc23)Sc2ccccc21	Active	Active	–	–	–	–	–	inhibition (A2780 [2]): Active
CN1/C(=C\c2cc[n+](CCCCCC(=O)N[C@@H](CC3CCCCC3)C(=O)N[C@H](CCCNC(=N)N)C(=O)N[C@@H](CC3CCCCC3)C(=O)N[C@H](CCCNC(=N)N)C(=O)N[C@@H](CC3CCCCC3)C(=O)N[C@H](CCCNC(=N)N)C(=O)N[C@@H](CCCCNC(=O)CCCc3ccc(N(CCCl)CCCl)cc3)C(N)=O)c3ccccc23)Sc2ccccc21	–	–	Active	–	–	–	–	inhibition (A2780 [4]): inactive; inhibition (INH) [5]: Active; inhibition (A2780 [7]): Active; Drug uptake [8]: Active; inhibition (A2780 [9]): Active; inhibition (A2780 [10]): Active; Drug uptake [11]: Not Active; Drug uptake [12]: Active
CN1/C(=C\c2cc[n+](CCCCCC(=O)N[C@@H](Cc3ccccc3)C(=O)N[C@H](CCCNC(=N)N)C(=O)N[C@@H](Cc3ccccc3)C(=O)N[C@H](CCCNC(=N)N)C(=O)N[C@@H](Cc3ccccc3)C(=O)N[C@H](CCCNC(=N)N)C(=O)N[C@H](CCCCNC(=O)CCCc3ccc(N(CCCl)CCCl)cc3)C(N)=O)c3ccccc23)Sc2ccccc21	Active	Active	–	inactive	50	Active	50	–
CN1/C(=C\c2cc[n+](CCCCCC(=O)N[C@@H](CC3CCCCC3)C(=O)N[C@H](CCCCN)C(=O)N[C@@H](CC3CCCCC3)C(=O)N[C@H](CCCCN)C(=O)N[C@@H](CC3CCCCC3)C(=O)N[C@H](CCCCN)C(=O)N[C@H](CCCCNC(=O)CCCc3ccc(N(CCCl)CCCl)cc3)C(N)=O)c3ccccc23)Sc2ccccc21	–	Active	–	inactive	50	Active	50	–
CN1/C(=C\c2cc[n+](CCCCCC(=O)N[C@@H](CCCNC(=N)N)C(=O)N[C@@H](CCCNC(=N)N)C(=O)N[C@@H](CCCNC(=N)N)C(=O)N[C@@H](CCCNC(=N)N)C(=O)N[C@@H](CCCNC(=N)N)C(=O)N[C@@H](CCCNC(=N)N)C(=O)N[C@H](CCCCNC(=O)CCCc3ccc(N(CCCl)CCCl)cc3)C(N)=O)c3ccccc23)Sc2ccccc21	Not Active	Active	–	–	–	–	–	Drug uptake (A2780 [17]): Not Active
CN1/C(=C\c2cc[n+](CCCCCC(=O)N[C@@H](Cc3ccncc3)C(=O)N[C@H](CCCNC(=N)N)C(=O)N[C@@H](Cc3ccncc3)C(=O)N[C@H](CCCNC(=N)N)C(=O)N[C@@H](Cc3ccncc3)C(=O)N[C@H](CCCNC(=N)N)C(=O)N[C@H](CCCCNC(=O)CCCc3ccc(N(CCCl)CCCl)cc3)C(N)=O)c3ccccc23)Sc2ccccc21	Active	Active	–	inactive	50	Active	50	–
O=C(O)CCCc1ccc(N(CCCl)CCCl)cc1	–	–	inactive	–	–	–	–	–
N=C(N)NCCC[C@@H](NC(=O)[C@H](CC1CCCCC1)NC(=O)[C@@H](CCCNC(=N)N)NC(=O)[C@H](CC1CCCCC1)NC(=O)[C@@H](CCCNC(=N)N)NC(=O)[C@@H](N)CC1CCCCC1)C(=O)N[C@@H](CCCCN)C(N)=O	–	–	inactive	–	–	–	–	–
CN1/C(=C\c2cc[n+](CCCCCC(=O)N[C@@H](Cc3ccc(O)cc3)C(=O)N[C@H](CCCNC(=N)N)C(=O)N[C@@H](Cc3ccc(O)cc3)C(=O)N[C@H](CCCNC(=N)N)C(=O)N[C@@H](Cc3ccc(O)cc3)C(=O)N[C@H](CCCNC(=N)N)C(=O)N[C@H](CCCCNC(=O)CCCc3ccc(N(CCCl)CCCl)cc3)C(N)=O)c3ccccc23)Sc2ccccc21	Not Active	Active	–	–	–	–	–	Drug uptake (A2780 [17]): Not Active
